≈ marks a conversion by molar mass, not a printed value. Where “and” joins values, the source holds several entries; their conditions need not be identical. Equal entries are not always repeated. Where two headings read alike, the source gives them in different places.
How the values were obtained:
[1] = test system: A2780 human ovarian carcinoma cell line; assay: Apoptotic effect (cells with apoptotic morphology, fluorescence microscopy) on A2780 cells with or without BSO pretreatment; type: cell-based
Protocol: (§1) Further evidence of the relevance of GSH levels for the cytotoxicity of the compounds of formula (I) has been obtained by determining the influence of prior treatment with BSO (L-S.R buthionine sulphoximine) on the susceptibility of A2780 human ovarian cells to their cytotoxic and apoptotic effect.
(§2) The cytotoxic activity was determined on A2780 human ovarian carcinoma cell line.
(§3) The cytotoxic activity was determined against exponentially growing cells. A2780 cells were seeded in 6 well-plates at concentration of 100,000 cells/ml for 2 ml and incubated for 24 h with the GSH inhibitor BSO and finally exposed to different concentrations of PNU 166196 (untreated cells were incubated with the medium only).
(§4) After 24 h treatment with the drug, cell growth inhibition was evaluated on the monolayer cells whereas the floating cells were used for morphology evaluation.
Apoptosis was evaluated by fluorescence microscopy. At the end of the treatment, floating cells were collected, washed in PBS, fixed in 70% ice-cold ethanol and stored at −20° C. until analysis (5 days max.). Cells were then centrifuged and the pellets were stained with 50 μg/ml propidium iodide, 0.001% Nonidet P40 and 60 U/ml Rnase and stored in the dark for 30 minutes at 37° C. Cells were centrifuged and the pellets were resuspended in […]. At least 600 cells randomly chosen from 2 smears independently prepared were examined for their nuclear morphology changes (chromatin condensation and DNA fragmentation) using a fluorescence microscope [see Int. J. Cancer 65:491–497 (1996)]. All the experiments were carried out twice. Results are reported per the enclosed table II and comments thereof.

[2] = test system: A2780 human ovarian carcinoma cell line; assay: Cytotoxicity (growth inhibition) on A2780 cells with or without BSO pretreatment; type: cell-based
Protocol: as §1, §2, §3, §4

[3] = test system: L1210 murine lymphocytic leukemia cell line; assay: Cytotoxic activity (cell growth inhibition, counting surviving cells) on L1210; type: cell-based; conditions: Mus musculus, read-out: Cytotoxicity IC50
Protocol: The cytotoxic activity was determined against exponentially growing cells.
All the experiments were carried out twice.

[4] = test system: L1210/L-PAM cells (melphalan resistant murine leukemia, high GSH); assay: cells; conditions: for IC50: Mus musculus, L1210/LPAM, 48 h, read-out: Cytotoxicity IC50; for Cytotoxicity on L1210/L-PAM cells in respect to L1210 cells: comparison of IC50 on the two cell lines
Protocol: The cytotoxic activity was determined on L1210 murine lymphocytic leukemia cell line and on the L-PAM resistant cell subline L1210/L-PAM. Cells were grown in vitro as stabilized suspension cultures.L1210 cells were maintained in RPMI 1640 medium containing β-mercaptoethanol (10 μM). L1210/L-PAM cells were maintained in RPMI 1640 medium containing β-mercaptoethanol (50 μM). All culture media (Biowhittaker, UK) were supplemented with 10% Fetal Calf Serum (Biological Industries, Israel) and 2 mM L-glutamine (Biowhittaker, UK).
The cytotoxic activity was determined against exponentially growing cells. L1210 and L1210/L-PAM cells were seeded in 24 well-plates at concentration of 50,000 cells/ml and immediately treated for 48 h with the drug.
The inhibition of cell growth was evaluated by counting surviving cells with a Coulter Counter. The antiproliferative activity of drugs was calculated from dose-response curves and expressed as IC50 (concentration inhibiting 50% cell growth in treated cultures relative to untreated controls). All the experiments were carried out twice.

[5] = A2780, BSO alone (dose printed MM)
[6] = L1210 cells (GSH 7.7 nmole/10^6 cells), 48 h incubation

CCCCS(=N)(=O)CCC(N)C(=O)O [BSO, L-S.R buthionine sulphoximine, reference compound]
Apoptosis % [1, 5]: 0%
Growth inhibition % [2, 5]: 2.5 ± 0.2%

N[C@@H](Cc1ccc(N(CCCl)CCCl)cc1)C(=O)O [L-PAM, melphalan]
IC50 ([3]; L1210, 48 h): 1.65 µg/mL (≈ 5.41 µM)
IC50 [4]: 8.1 µg/mL (≈ 26.5 µM)
Cytotoxicity on L1210/L-PAM cells in respect to L1210 cells [4]: lower

C=C(Br)C(=O)Nc1cc(C(=O)Nc2cc(C(=O)Nc3cc(C(=O)Nc4cc(C(=O)NCCC(=N)N)n(C)c4)n(C)c3)n(C)c2)n(C)c1.Cl [PNU 151807, N-(5-{[(5-{[(5-{[(3-amino-3-iminopropyl)amino]carbonyl}-1-methyl-1H-pyrrol-3-yl)amino]carbonyl}-1-methyl-1H-pyrrol-3-yl)amino]carbonyl}-1-methyl-1H-pyrrol-3-yl)-4-[(2-bromoacryloyl)amino]-1-methyl-1H-pyrrole-2-carboxamide hydrochloride]
IC50 [3, 6]: 0.00086 µg/mL
IC50 [4]: 0.00026 µg/mL

C=C(Br)C(=O)Nc1cc(C(=O)Nc2cc(C(=O)Nc3cc(C(=O)Nc4cc(C(=O)NCCNC(=N)N)n(C)c4)n(C)c3)n(C)c2)n(C)c1.Cl [PNU 166196, N-(5-{[(5-{[(5-{[(2-{[amino(imino)methyl]amino}ethyl)amino]carbonyl}-1-methyl-1H-pyrrol-3-yl)amino]carbonyl}-1-methyl-1H-pyrrol-3-yl)amino]carbonyl}-1-methyl-1H-pyrrol-3-yl)-4-[(2-bromoacryloyl)amino]-1-methyl-1H-pyrrole-2-carboxamide hydrochloride]
Apoptotic effect (percentage of cells with apoptotic morphology) in BSO pretreated cells in respect to BSO-untreated ones ([1]; A2780): significantly decreased
Apoptosis % ([1]; A2780, 300 ng/ml, no BSO): 17.5 ± 6.5%
Apoptosis % ([1]; A2780, 1000 ng/ml, no BSO): 49.5 ± 15.5%
Apoptosis % ([1]; A2780, 3000 ng/ml, BSO 0.1 mM 24 h before and during treatment): 11.5%
Apoptosis % ([1]; A2780, 3000 ng/ml, no BSO, hydrochloride): 74.5% and 74.5 ± 15.5%
IC50 [3, 6]: 0.00162 µg/mL
Cytotoxicity (percentage of growth inhibition) in BSO pretreated cells in respect to BSO-untreated ones ([2]; A2780): significantly decreased
inhibition at 0.3 µg/mL ([2]; Homo sapiens, A2780, A2780, 300 ng/ml, no BSO): 43 ± 2.5%
inhibition at 1 µg/mL ([2]; Homo sapiens, A2780, A2780, 1000 ng/ml, no BSO): 64.5 ± 14.5%
inhibition at 3 µg/mL ([2]; Homo sapiens, A2780, read-out: Growth inhibition %, A2780, 3000 ng/ml, BSO 0.1 mM 24 h before and during treatment): 38%
inhibition at 3 µg/mL ([2]; Homo sapiens, A2780, read-out: Growth inhibition %, A2780, 3000 ng/ml, no BSO): 77.5%
IC50 [4]: 0.00049 µg/mL

Cn1cc(NC(=O)c2cc(NC(=O)c3cc(NC(=O)c4ccc(N(CCCl)CCCl)cc4)cn3C)cn2C)cc1C(=O)NCCC(=N)N [Tallimustine, 3-[1-methyl-4-[1-methyl-4-[1-methyl-4-[1-methyl-4-[N,N-bis(2-chloroethyl)amino]benzenecarboxamindo]pyrrole-2-carboxamido]pyrrole-2-carboxamido]pyrrole-2-carboxamido]propionamidine]
IC50 ([3]; L1210, 48 h): 0.0225 µg/mL (≈ 0.0323 µM)
IC50 [4]: 0.0274 µg/mL (≈ 0.0393 µM)
Cytotoxicity on L1210/L-PAM cells in respect to L1210 cells [4]: comparable

— US7030089B2 (priority 2000, dated 2006)
